Test: Agilent ZORBAX Eclipse Plus C18, 100 × 2.1 mm, 1.8 µm, 25 °C, 0.3 mL/min, estimated dead time 0.73 min; A: water + 0.1% acetic acid; B: methanol; gradient (min/%B) 0/5 6/20 13/35 18/50 24/65 30/90 40/90
Conditions: stereoisomer not certain
`C[n+]1cccc(C(=O)[O-])c1` gave an LC retention time of 2.21 min.
Molecule `CCCCC=CC=CC=O` has an LC retention time of 22.7 min.
With `C=C1CCCC2(C)CC3(O)OC(=O)C(C)=C3CC12` (configuration not stated) the LC retention time was 30.1 min.
`COc1cc(C(=O)O)cc(OC)c1O` showed an LC retention time of 9.87 min.
For `NCCCCC(N)C(=O)O` (configuration not stated), the LC retention time was 1.88 min.
`CC(C)CC(N)C(=O)O` (configuration not stated) gave an LC retention time of 5.02 min.
`COc1cc(C=CC(=O)O)ccc1O` showed an LC retention time of 11.5 min.
Work on `NC(Cc1ccc(O)cc1)C(=O)O` (configuration not stated) yielded an LC retention time of 4.31 min.
Work on `CC1OC(OCC2OC(Oc3c(-c4ccc(O)c(O)c4)oc4cc(O)cc(O)c4c3=O)C(O)C(O)C2O)C(O)C(O)C1O` (configuration not stated) yielded an LC retention time of 11.6 min.
`COc1ccc(-c2coc3cc(OC4OC(CO)C(O)C(O)C4O)ccc3c2=O)cc1` (configuration not stated) gave an LC retention time of 21.6 min.
`Nc1ncnc2nc[nH]c12` showed an LC retention time of 2.73 min.
In the case of `NC(Cc1ccccc1)C(=O)O` (configuration not stated), the LC retention time is reported as 7.22 min.

Reference: the RepoRT retention time repository (doi:10.1016/j.chroma.2015.03.063)
